Patent US8759098B2, “Method for cloning pluripotent stem cells” (Boston Biomedical Research Institute, Inc., priority 2009, dated 2014)

What was measured:
Format in all cases: cell-based, mouse
Panstra 56 [1] = assay: SACK responsiveness (cell kinetics, colony formation), Panstra 56; parameters: key: SACK-responsive (R); non-responsive (NR); details: Panstra 56, SACK agent Xn
Excerpt: (§1) The terms “SACK-R” and “Xn-responsive” are used interchangeably. Xn-responsive cells are not transformed cells.
(§2) In the example, the differentiated cells are adult mouse pancreatic islet cells and Xn is the chemical compound used to suppress asymmetric cell kinetics (SACK). […] These Xn-treated and Xn-responsive cells then proceeded to express alkaline phosphatase, a known enzyme marker that is highly expressed in undifferentiated cells such as primordial germ cells (FIG. 8), after culture in media that support the proliferation of mouse pluripotent stem cells. Under these conditions, these Xn-expanded and Xn-responsive cells also multiply to form colonies that take on a clonal mouse embryonic stem cell-like morphology in culture, resembling a compact clump of round tiny cells, the clump having a smooth and well defined edge (FIG. 7B).
The SACK-derived clonal pancreatic cell strains have properties of either beta-cell precursors (Pdx1+) or more primitive pancreatic cells (Pdx1−). In the colony formation analyses, three hundred (300) cells were plated in replicate (n=3) 30-mm diameter culture dishes. Twenty-four hours later, the culture medium was replaced with the medium supplemented with SACK agents as indicated. Ten days later, plates were stained with crystal violet and colonies counted. Xs, xanthosine; Xn, xanthine; Hx hypoxanthine.

[2] = system: SACK-responsive, Pdx1-negative Panstra-12 pancreatic stem cells; assay: Gene-free iPSC reprogramming on STO feeders, colony phenotypes, Panstra-12; details: for Estimated gene-free iPSC colony formation efficiency, ES, AP+ (iPSC state) / Estimated gene-free iPSC colony formation efficiency, ES, AP− / Estimated gene-free iPSC colony formation efficiency, Fl, AP+ / Estimated gene-free iPSC colony formation efficiency, Fl, AP− / Phenotype ES, AP+ (iPSC state) of individual cell clones following expansion, clones/total / Phenotype ES, AP+ (iPSC state) of individual cell clones following expansion, percent / Phenotype ES, AP− of individual cell clones following expansion, clones/total / Phenotype ES, AP− of individual cell clones following expansion, percent / Phenotype Fl, AP+ of individual cell clones following expansion, clones/total / Phenotype Fl, AP+ of individual cell clones following expansion, percent / Phenotype Fl, AP− of individual cell clones following expansion, clones/total / Phenotype Fl, AP− of individual cell clones following expansion, percent: Panstra-12, 1 mM Xn
Procedure: (§3) Each tested SACK-derived cell strain was cultured on STO cell feeder monolayers in control medium with 10% DFBS, dialyzed fetal bovine serum (DFBS) or either of two commercial media for culture of murine embryonic stem cells (ESCs) and for the culture of reprogrammed cells such as iPSCs. Each medium condition was evaluated with or without supplementation with 1 mM xanthine (Xn). P/S denotes routine use of the antibiotics penicillin and streptomycin.
(§4) The method is an original pharmacological procedure for producing pluripotent stem cells. Cell strains derived in xanthine (Xn)-supplemented medium, by the method of suppression of asymmetric cell kinetics (SACK), were cultured in commercial media specified for the culture and/or production of pluripotent stem cells such as embryonic stem cells and iPSCs. Approximately 150,000 cells were plated on confluent STO cell feeders (i.e., mouse embryonic fibroblasts pre-treated with mitomycin C) in 10-cm culture dishes. In 2 weeks, iPSC-like cell colonies were detected.
To establish clonal strains, single colonies were picked, cultured in individual wells, and expanded for further study and cryo-preservation. A high fraction of the derived cell clones have morphological and biochemical properties indicative of iPSC cells.
Tissue-specific stem cells (e.g., Panstra-25 and Panstra-12 mouse pancreatic stem cell strains in the instant example) were cultured on mitomycin C-treated STO cell monolayers in commercial embryonic stem cell medium supplemented with the purine salvage base xanthine at 1 mM concentration (FIG. 4). Within 2-3 weeks of culture under otherwise standard conditions, cell colonies with embryonic stem cell-like morphology developed (FIG. 7B). These colonies were removed by mild trypsin treatment, transferred to individual cell culture wells prepared with STO cell feeders, and expanded in the respective embryonic stem cell culture medium supplemented with 1 mM xanthine (FIG. 5). The expanded cell clones expressed alkaline phosphatase (FIG. 8), a biochemical biomarker for the pluripotent phenotype of embryonic stem cells and iPSC cells. […] Xn supplementation increased the average production efficiency by as much as 3-fold (Table 6).

Panstra 56 [3] = assay: Gene-free iPSC reprogramming, Panstra 56; details: Panstra 56, SACK agent Xn
Procedure: as §3, §4
Tissue-specific stem cells (e.g., Panstra-25 and Panstra-12 mouse pancreatic stem cell strains in the instant example) were cultured on mitomycin C-treated STO cell monolayers in commercial embryonic stem cell medium supplemented with the purine salvage base xanthine at 1 mM concentration (FIG. 4). […]

Panstra 11 = assay: SACK responsiveness (cell kinetics, colony formation), Panstra 11; parameters: key: SACK-responsive (R); non-responsive (NR); details: Panstra 11, SACK agent Xn
Procedure: Cells were plated at colony forming density in SACK-free culture medium (Control) or culture medium supplemented to 1 mM concentration with the SACK agents xanthosine (Xs), xanthine (Xn), or hypoxanthine (Hx).
as §1, §2
The SACK-derived clonal pancreatic cell strains have properties of either beta-cell precursors (Pdx1+) or more primitive pancreatic cells (Pdx1−). In the colony formation analyses, three hundred (300) cells were plated in replicate (n=3) 30-mm diameter culture dishes. […] Ten days later, plates were stained with crystal violet and colonies counted. […]

[4] = system: reprogramming genes (Oct4, Sox2, Klf4, Myc, Lin28) in Panstra-11-Xn Non-responsive; assay: Micro-array expression of reprogramming gene mRNAs, Panstra-11
Excerpt: Table 2. Micro-array expression levels for described iPSC reprogramming gene mRNAs in SACK-derived mouse pancreatic stem cell strains. […] Panstra-11 is a non-responsive strain.
All the described induced pluripotent stem cell (iPSC) reprogramming genes are detected in two cell strains derived with the suppression of asymmetric cell kinetics (SACK)-agent xanthine (Xn). The SACK strains were derived from pancreatic islets of adult xanthine phosphoribosyl transferase (XPRT)-transgenic mice. The derivation of such strains requires both the XPRT-transgenic genotype and Xn.

SACK-R strain Panstra-25 = assay: Insulin expression by immunofluorescence, pancreatic differentiation; details: routine culture conditions with Xn supplementation, three days
Excerpt: Upper panels, routine culture conditions with Xn supplementation; lower panels, Xn-free differentiation conditions. DAPI, detection of corresponding cell nuclei. The expression of insulin was detected by immunofluorescence (data not shown). In order to study the formation of islet-like clusters after induction of differentiation in Xn-free medium, pancreatic beta-cell differentiation was induced by plating the cells on a poly-D-lysine substrate and changing growth medium to medium containing 1% dialysed fetal bovine serum, 20 ng/mL epidermal growth factor (EGF), 10 mM nicotinamide, and 25 mM glucose. […] Insulin was expressed in cells differentiated in Xn-free conditions after three days. The expression of insulin was detected by immunofluorescence (data not shown). DAPI, detection of corresponding cell nuclei. […] These properties of self-renewal in an undifferentiated state and the ability to produce differentiated pancreatic cells define the SACK-R strains as pancreatic tissue stem cells.

Compound: O=c1[nH]c(=O)c2[nH]cnc2[nH]1 [Xn, xanthine]
- SACK Type (Panstra 56 [1]): NR
- iPSC (gene-free iPSC reprogramming) ([2]; Panstra 12, SACK agent Xn): Yes
- Estimated gene-free iPSC colony formation efficiency, ES, AP+ (iPSC state) ([2]; DFBS): 0.000%
- Estimated gene-free iPSC colony formation efficiency, ES, AP− ([2]; DFBS): 0.047%
- Estimated gene-free iPSC colony formation efficiency, Fl, AP+ ([2]; DFBS): 0.027%
- Estimated gene-free iPSC colony formation efficiency, Fl, AP− ([2]; DFBS): 0.080%
- Phenotype ES, AP+ (iPSC state) of individual cell clones following expansion, clones/total ([2]; DFBS): 0/23
- Phenotype ES, AP+ (iPSC state) of individual cell clones following expansion, percent ([2]; DFBS): 0%
- Phenotype ES, AP− of individual cell clones following expansion, clones/total ([2]; DFBS): 7/23
- Phenotype ES, AP− of individual cell clones following expansion, percent ([2]; DFBS): 31%
- Phenotype Fl, AP+ of individual cell clones following expansion, clones/total ([2]; DFBS): 4/23
- Phenotype Fl, AP+ of individual cell clones following expansion, percent ([2]; DFBS): 17%
- Phenotype Fl, AP− of individual cell clones following expansion, clones/total ([2]; DFBS): 12/23
- Phenotype Fl, AP− of individual cell clones following expansion, percent ([2]; DFBS): 52%
- Estimated gene-free iPSC colony formation efficiency, ES, AP+ (iPSC state) ([2]; KOSR): 0.067%
- Estimated gene-free iPSC colony formation efficiency, ES, AP− ([2]; KOSR): 0.033%
- Estimated gene-free iPSC colony formation efficiency, Fl, AP+ ([2]; KOSR): 0.007%
- Estimated gene-free iPSC colony formation efficiency, Fl, AP− ([2]; KOSR): 0.007%
- Phenotype ES, AP+ (iPSC state) of individual cell clones following expansion, clones/total ([2]; KOSR): 10/17
- Phenotype ES, AP+ (iPSC state) of individual cell clones following expansion, percent ([2]; KOSR): 59%
- Phenotype ES, AP− of individual cell clones following expansion, clones/total ([2]; KOSR): 5/17
- Phenotype ES, AP− of individual cell clones following expansion, percent ([2]; KOSR): 29%
- Phenotype Fl, AP+ of individual cell clones following expansion, clones/total ([2]; KOSR): 1/17
- Phenotype Fl, AP+ of individual cell clones following expansion, percent ([2]; KOSR): 6%
- Phenotype Fl, AP− of individual cell clones following expansion, clones/total ([2]; KOSR): 1/17
- Phenotype Fl, AP− of individual cell clones following expansion, percent ([2]; KOSR): 6%
- Estimated gene-free iPSC colony formation efficiency, ES, AP+ (iPSC state) ([2]; hiFBS): 0.020%
- Estimated gene-free iPSC colony formation efficiency, ES, AP− ([2]; hiFBS): 0.033%
- Estimated gene-free iPSC colony formation efficiency, Fl, AP+ ([2]; hiFBS): 0.000%
- Estimated gene-free iPSC colony formation efficiency, Fl, AP− ([2]; hiFBS): 0.073%
- Phenotype ES, AP+ (iPSC state) of individual cell clones following expansion, clones/total ([2]; hiFBS): 3/19
- Phenotype ES, AP+ (iPSC state) of individual cell clones following expansion, percent ([2]; hiFBS): 16%
- Phenotype ES, AP− of individual cell clones following expansion, clones/total ([2]; hiFBS): 5/19
- Phenotype ES, AP− of individual cell clones following expansion, percent ([2]; hiFBS): 26%
- Phenotype Fl, AP+ of individual cell clones following expansion, clones/total ([2]; hiFBS): 0/19
- Phenotype Fl, AP+ of individual cell clones following expansion, percent ([2]; hiFBS): 0%
- Phenotype Fl, AP− of individual cell clones following expansion, clones/total ([2]; hiFBS): 11/19
- Phenotype Fl, AP− of individual cell clones following expansion, percent ([2]; hiFBS): 58%
- higher rate of iPSC-like colony production, average ([2]; Pdx1− strain supplemented with Xn, p=0.024): 3 fold
- increase of the conversion rate to iPSC ([2]; Xn in the iPSC media at 1 mM, strain not given): approximately 3 fold
- increase of the average production efficiency of iPSC-like cell clones ([2]; Xn supplementation (Table 6)): ≤ 3 fold
- iPSC (gene-free iPSC reprogramming) (Panstra 56 [3]): No
- SACK Type (Panstra 11): NR
- Klf4 expression (gene micro-array data) [4]: 21.6
- Lin28 expression (gene micro-array data) [4]: 0.9
- Myc expression (gene micro-array data) [4]: 19.6
- Oct4 expression (gene micro-array data) [4]: 2.6
- Sox2 expression (gene micro-array data) [4]: 0.1
- expression of insulin (immunofluorescence) (SACK-R strain Panstra-25): no expressed insulin was detectable
